Tests used:
CpCBM92A = molecular target: T1, CpCBM92A (Chitinophaga pinensis, UniProt A0A979GQH9); test: isothermal titration calorimetry; conditions: 50 mM sodium phosphate pH 6.5; three equivalent binding sites (N fixed to 3)
T1 construct: gene Cpin_2580; single CBM92 domain (three WExF motifs incl. W481, W523, W565), borders only in supplement; pET21a, C-terminal His6, E. coli BL21 (DE3)
Source text: isothermal titration calorimetry on CpCBM92A

CpCBM92B = molecular target: T2, CpCBM92B (Chitinophaga pinensis, UniProt A0A979GQH9); test: X-ray crystallography of soaked crystal; type: binding; conditions: sites in alpha, beta and gamma subdomains, saturating ligand soak
T2 construct: gene Cpin_2580; single CBM92 domain (incl. Arg955, Asp959 of beta subdomain), locus and borders only in supplement; His6-tagged, E. coli BL21 (DE3)
T2 sequence (A0A979GQH9 entry or part of it): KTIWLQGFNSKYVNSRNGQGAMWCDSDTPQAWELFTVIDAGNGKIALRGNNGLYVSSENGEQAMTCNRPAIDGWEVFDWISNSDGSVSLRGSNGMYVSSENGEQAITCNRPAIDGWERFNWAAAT

T1 sequence (A0A979GQH9 entry or part of it): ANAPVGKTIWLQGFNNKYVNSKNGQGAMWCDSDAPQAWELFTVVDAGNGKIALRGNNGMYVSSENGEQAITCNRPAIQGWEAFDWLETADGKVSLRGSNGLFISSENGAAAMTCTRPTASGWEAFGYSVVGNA

SMILES | Kd (CpCBM92A) [µM] | X-ray crystallography of soaked crystal (CpCBM92B; non-reducing end sugar in cleft) | X-ray crystallography of soaked crystal (CpCBM92B)
OC[C@H]1O[C@@H](OC[C@H]2OC(O)[C@H](O)[C@@H](O)[C@@H]2O)[C@H](O)[C@@H](O)[C@@H]1O (stereo partly drawn) [G2, gentiobiose] | 202 ± 40 | Adding either G2 or S2 to the protein crystals led to binding | 
OC[C@H]1O[C@@H](O[C@H]2C(O)O[C@H](CO)[C@@H](O)[C@@H]2O)[C@H](O)[C@@H](O)[C@@H]1O (stereo partly drawn) [S2, sophorose] | 882 ± 107 |  | Adding either G2 or S2 to the protein crystals led to binding
OC[C@H]1OC(O)[C@H](O)[C@@H](O)[C@@H]1O (stereo partly drawn) [glucose] | 1840 ± 200 |  | Soaking experiments of the CpCBM92B protein crystals with glucose, gentiobiose
